Broadly, the IC50 is the point on the concentration scale where inhibition reaches its midpoint. What is called half-life is the time in which the quantity being followed falls by half. Lower therefore signals fast loss.

For data set [1], the target named is T1, Interleukin-23 receptor (Homo sapiens, UniProt Q5VWK5).
T1 sequence (Q5VWK5 whole entry): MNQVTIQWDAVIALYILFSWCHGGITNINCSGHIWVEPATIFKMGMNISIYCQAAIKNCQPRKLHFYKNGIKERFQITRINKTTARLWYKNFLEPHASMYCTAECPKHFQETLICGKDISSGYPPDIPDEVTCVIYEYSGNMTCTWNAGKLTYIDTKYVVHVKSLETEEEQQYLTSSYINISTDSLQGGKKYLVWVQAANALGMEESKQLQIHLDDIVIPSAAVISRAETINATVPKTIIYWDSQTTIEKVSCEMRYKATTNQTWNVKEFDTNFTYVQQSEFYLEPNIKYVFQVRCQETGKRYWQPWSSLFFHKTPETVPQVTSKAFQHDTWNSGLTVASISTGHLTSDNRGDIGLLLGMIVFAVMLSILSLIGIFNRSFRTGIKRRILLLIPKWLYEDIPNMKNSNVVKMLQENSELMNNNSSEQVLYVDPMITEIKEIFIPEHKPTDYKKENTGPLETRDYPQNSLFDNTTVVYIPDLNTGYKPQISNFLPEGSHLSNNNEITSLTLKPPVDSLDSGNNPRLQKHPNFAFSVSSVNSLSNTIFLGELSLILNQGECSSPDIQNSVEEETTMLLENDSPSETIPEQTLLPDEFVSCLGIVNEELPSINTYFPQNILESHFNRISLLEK
Briefly: Inhibition of interleukin-23 receptor in human DB cells assessed as reduction in IL-23-stimulated STAT3 phosphorylation incubated for 30 mins by HTRF assay. Type of data set: cell-based. In general terms: TR-FRET usually uses a lanthanide donor and a delayed reading to cut background.

Data set [2] can be described thus: Inhibition of interleukin-23 binding to rat interleukin-23 receptor incubated for 2 hrs by competitive binding ELISA.
Data set [3] addresses T1, Interleukin-23 receptor. Briefly: Inhibition of interleukin-23 receptor in human natural killer cells assessed as reduction in IL23/IL18-induced IFNgamma production incubated for 20 to 24 hrs by ELISA. Type of data set: cell-based. On the technique in general: ELISA stands for enzyme-linked immunosorbent assay.
In data set [4] the target is T1, Interleukin-23 receptor. Briefly: Inhibition of interleukin-23 binding to human interleukin-23 receptor incubated for 2 hrs by competitive binding ELISA.
Data set [5] in a line: Half life in simulated intestinal fluid at 20 uM by LC-MS/MS analysis. Type of data set: ADME.
A short description of data set [6]: Half life in simulated gastric fluid at 20 uM by LC-MS/MS analysis. Type of data set: ADME.

Structures are written as SMILES. *1 amine or outer side, *2 acyl side, *3 side chain or, on linkers, in order; H or OH if unused. Where a SMILES comes first, the peptide text is derived from it. Bridges are numbered along the chain shown (N, C = ends). [ ]: non-standard residue; d: D form. Abu(4-yl) = O=C([C@H](CC[*:3])N[*:1])[*:2]; 2Nal = N[C@@H](Cc1ccc2ccccc2c1)C(=O)O; AEF = NCCOc1ccc(C[C@H](N)C(=O)O)cc1; αMeL = CC(C)C[C@](C)(N)C(=O)O

On to `CC(=O)NCCCC[C@H](NC(=O)[C@](C)(CCCCN)NC(=O)[C@H](Cc1ccc2ccccc2c1)NC(=O)[C@H](Cc1ccc(C(N)=O)cc1)NC(=O)[C@@H](NC(=O)[C@H](CCC(N)=O)NC(=O)[C@H](Cc1c[nH]c2ccccc12)NC(=O)[C@@H](NC(=O)[C@H](CCC(N)=O)NC(=O)[C@@H](NC(C)=O)C(C)(C)S)[C@@H](C)O)C(C)(C)S)C(=O)N[C@@H](CC(N)=O)C(=O)N[C@@H](CC(N)=O)C(N)=O`, for which the IC50 at Interleukin-23 receptor [1] is below 10 nM; in data set [2] it was 25 to 100 nM; on Interleukin-23 receptor [3], below 10 nM.
Regarding `COc1ccc(C[C@H](NC(=O)[C@@H](NC(=O)[C@H](CCC(N)=O)NC(=O)[C@H](Cc2c[nH]c3ccccc23)NC(=O)[C@@H](NC(=O)[C@H](CC(N)=O)NC(=O)[C@@H](NC(=O)[C@@H](Cc2ccccc2)NC(C)=O)C(C)(C)S)[C@@H](C)O)C(C)(C)S)C(=O)N[C@@H](Cc2ccc3ccccc3c2)C(=O)NC2(C(=O)N[C@@H](CCCNC(N)=O)C(=O)N[C@@H](CC(N)=O)C(=O)N[C@@H](CC(N)=O)C(N)=O)CCOCC2)cc1`, on Interleukin-23 receptor [3], the concentration for half-maximal inhibition (IC50) was below 10 nM.
Regarding `COc1ccc(C[C@H](NC(=O)[C@@H](NC(=O)[C@H](CCC(N)=O)NC(=O)[C@H](Cc2c[nH]c3ccccc23)NC(=O)[C@@H](NC(=O)[C@H](CCC(N)=O)NC(=O)[C@@H](NC(C)=O)C(C)(C)S)[C@@H](C)O)C(C)(C)S)C(=O)N[C@@H](Cc2ccc3ccccc3c2)C(=O)N[C@@](C)(CCCCN)C(=O)N[C@@H](CCCCNC(C)=O)C(=O)N[C@@H](CC(N)=O)C(=O)N[C@@H](CC(N)=O)C(N)=O)cc1`, the IC50 on Interleukin-23 receptor [1] and at Interleukin-23 receptor [3] was below 10 nM throughout.
On to `COc1ccc(C[C@H](NC(=O)[C@H](Cc2ccc(OCCN)cc2)NC(=O)[C@@H]2CSCC[C@H](NC(C)=O)C(=O)N[C@@H](CCC(N)=O)C(=O)N[C@@H]([C@@H](C)O)C(=O)N[C@@H](Cc3c[nH]c4ccccc34)C(=O)N[C@@H](CCC(N)=O)C(=O)N2)C(=O)N[C@@](C)(CCCCN)C(=O)N[C@@H](CCCCNC(C)=O)C(=O)N[C@@H](CC(N)=O)C(=O)NCC(N)=O)cc1OC`, for which the half-inhibitory concentration (IC50) at Interleukin-23 receptor [1] was below 10 nM; in data set [2] it was 25 to 100 nM; on Interleukin-23 receptor [4], 10 to 25 nM; at Interleukin-23 receptor [3], below 25 nM.
As to `COc1ccc(C[C@H](NC(=O)[C@@H]2CSCC[C@H](NC(C)=O)C(=O)N[C@@H](CCC(N)=O)C(=O)N[C@@H]([C@@H](C)O)C(=O)N[C@@H](Cc3c[nH]c4ccccc34)C(=O)N[C@@H](CCC(N)=O)C(=O)N2)C(=O)N[C@@H](Cc2ccc3ccccc3c2)C(=O)N[C@@](C)(CCCCNC(=O)COCC(=O)NCCCC[C@](C)(NC(=O)[C@H](Cc2ccc3ccccc3c2)NC(=O)[C@H](Cc2ccc(OC)cc2)NC(=O)[C@@H]2CSCC[C@H](NC(C)=O)C(=O)N[C@@H](CCC(N)=O)C(=O)N[C@@H]([C@@H](C)O)C(=O)N[C@@H](Cc3c[nH]c4ccccc34)C(=O)N[C@@H](CCC(N)=O)C(=O)N2)C(=O)N[C@@H](CCC(=O)O)C(=O)N[C@@H](CC(N)=O)C(=O)NCC(N)=O)C(=O)N[C@@H](CCC(=O)O)C(=O)N[C@@H](CC(N)=O)C(=O)NCC(N)=O)cc1`, the IC50 on Interleukin-23 receptor [1] is below 10 nM; in data set [2], 10 to 25 nM; on Interleukin-23 receptor [4] it was below 10 nM; on Interleukin-23 receptor [3] it was below 25 nM.
`CC(=O)NCCCC[C@H](NC(=O)[C@](C)(CC(C)C)NC(=O)[C@H](Cc1ccc2ccccc2c1)NC(=O)[C@H](Cc1ccc(OCCN)cc1)NC(=O)[C@@H]1CSCC[C@H](NC(C)=O)C(=O)N[C@@H](CCC(N)=O)C(=O)N[C@@H]([C@@H](C)O)C(=O)N[C@@H](Cc2c[nH]c3ccccc23)C(=O)N[C@@H](CCC(N)=O)C(=O)N1)C(=O)N[C@@H](CC(N)=O)C(=O)N[C@@H](CC(N)=O)C(N)=O` (Ac-[Abu(4-yl)]QTWQC[AEF][2Nal][αMeL]K(Ac)NN-NH2; thioether 1-6): the half-life at 20 µM in data set [5] is 2 to 3 h; in data set [6], below 1 h. The half-inhibitory concentration (IC50) (on Interleukin-23 receptor [1]; in data set [2]; on Interleukin-23 receptor [4]) was below 10 nM each time.
`CC(=O)N[C@H]1CCSC[C@@H](C(=O)N[C@@H](Cc2ccc(OCCN)cc2)C(=O)N[C@@H](Cc2ccc3ccccc3c2)C(=O)N[C@@](C)(CCCCN)C(=O)N[C@@H](CCC(=O)O)C(=O)N[C@@H](CC(N)=O)C(=O)NCC(N)=O)NC(=O)[C@H](CCC(N)=O)NC(=O)[C@H](Cc2c[nH]c3ccccc23)NC(=O)[C@H]([C@@H](C)O)NC(=O)[C@H](CCC(N)=O)NC1=O`: the half-life at 20 µM in data set [5] and in data set [6] was above 6 h each time. The IC50 (at Interleukin-23 receptor [1]; in data set [2]; on Interleukin-23 receptor [4]) was below 10 nM in each case.
Regarding `COc1ccc(C[C@H](NC(=O)[C@@H]2CSCC[C@H](NC(C)=O)C(=O)N[C@@H](CCC(N)=O)C(=O)N[C@@H]([C@@H](C)O)C(=O)N[C@@H](Cc3c[nH]c4ccccc34)C(=O)N[C@@H](CCC(N)=O)C(=O)N2)C(=O)N[C@@H](Cc2ccc3ccccc3c2)C(=O)N[C@@](C)(CCCN)C(=O)N[C@@H](CCCCNC(C)=O)C(=O)N[C@@H](CC(N)=O)C(=O)NCC(N)=O)cc1`, the half-life at 20 µM in data set [5] is 2 to 3 h; in data set [6], below 1 h. The figures for the IC50 (on Interleukin-23 receptor [1]; in data set [2]; at Interleukin-23 receptor [4]) were below 10 nM, 10 to 25 nM and 10 to 25 nM, respectively.
Consider `CC(=O)N[C@H](C(=O)N[C@@H](CCC(N)=O)C(=O)N[C@H](C(=O)N[C@@H](Cc1c[nH]c2ccccc12)C(=O)N[C@@H](CCC(N)=O)C(=O)N[C@H](C(=O)N[C@@H](Cc1ccc(OCCN)cc1)C(=O)N[C@@H](Cc1ccc2ccccc2c1)C(=O)N[C@@](C)(CC(C)C)C(=O)N[C@@H](CCC(N)=O)C(=O)N[C@@H](CC(N)=O)C(=O)N[C@@H](CC(N)=O)C(N)=O)C(C)(C)S)[C@@H](C)O)C(C)(C)S`, for which the half-life at 20 µM in data set [5] and in data set [6] was above 6 h each time. Also, the IC50 (on Interleukin-23 receptor [1]; in data set [2]; on Interleukin-23 receptor [4]) was below 10 nM each time.
Turning to `CC(=O)NCCCC[C@H](NC(=O)[C@](C)(CCCCN)NC(=O)[C@H](Cc1ccc2ccccc2c1)NC(=O)[C@H](Cc1ccc(OCCN)cc1)NC(=O)[C@@H]1CSCC[C@H](NC(=O)CCC(=O)O)C(=O)N[C@@H](CCC(N)=O)C(=O)N[C@@H]([C@@H](C)O)C(=O)N[C@@H](Cc2c[nH]c3ccccc23)C(=O)N[C@@H](CCC(N)=O)C(=O)N1)C(=O)N[C@@H](CC(N)=O)C(=O)NCC(N)=O`, the half-life at 20 µM is above 6 h in data set [5] and 3 to 6 h in data set [6]. Besides, the IC50 (on Interleukin-23 receptor [1]; in data set [2]; on Interleukin-23 receptor [4]) was below 10 nM in each case.
For `COc1ccc(C[C@H](NC(=O)[C@@H](NC(=O)[C@H](CCC(N)=O)NC(=O)[C@H](Cc2c[nH]c3ccccc23)NC(=O)[C@@H](NC(=O)[C@H](CC(N)=O)NC(=O)[C@@H](NC(=O)[C@@H](Cc2ccccc2)NC(C)=O)C(C)(C)S)[C@@H](C)O)C(C)(C)S)C(=O)N[C@@H](Cc2ccc3ccccc3c2)C(=O)NC2(C(=O)N[C@@H](CCCNC(N)=O)C(=O)N[C@@H](CC(N)=O)C(=O)N[C@@H](CC(N)=O)C(N)=O)CCCCC2)cc1`, the IC50 at Interleukin-23 receptor [3] was below 10 nM.
On to `COc1ccc(C[C@H](NC(=O)[C@@H](NC(=O)[C@H](CCC(N)=O)NC(=O)[C@H](Cc2c[nH]c3ccccc23)NC(=O)[C@@H](NC(=O)[C@H](CCC(N)=O)NC(=O)[C@@H](NC(C)=O)C(C)(C)S)[C@@H](C)O)C(C)(C)S)C(=O)N[C@@H](Cc2ccc3ccccc3c2)C(=O)N[C@@](C)(CCCCN)C(=O)N[C@@H](CCCCNC(C)=O)C(=O)N[C@@H](CC(N)=O)C(=O)NCC(N)=O)cc1`, for which the half-life at 20 µM in data set [5] and in data set [6] was above 6 h each time. Further, the results for the half-maximal inhibitory concentration (IC50) (at Interleukin-23 receptor [1]; in data set [2]; at Interleukin-23 receptor [4]) were below 10 nM, 25 to 100 nM and 25 to 100 nM, respectively.
Turning to `COc1ccc(C[C@H](NC(=O)[C@@H]2CSCC[C@H](NC(C)=O)C(=O)N[C@@H](CCC(N)=O)C(=O)N[C@@H]([C@@H](C)O)C(=O)N[C@@H](Cc3c[nH]c4ccccc34)C(=O)N[C@@H](CCC(N)=O)C(=O)N2)C(=O)N[C@@H](Cc2cccc3ccccc23)C(=O)N[C@@](C)(CCCCN)C(=O)N[C@@H](CCCCNC(C)=O)C(=O)N[C@@H](CC(N)=O)C(=O)NCC(N)=O)cc1`, the half-life at 20 µM is above 6 h in data set [5] and below 1 h in data set [6]. Further, the figures for the IC50 (at Interleukin-23 receptor [1]; in data set [2]; on Interleukin-23 receptor [4]) were 10 to 25 nM, 25 to 100 nM and 25 to 100 nM, respectively.
With `COc1ccc(C[C@H](NC(=O)[C@@H]2CSCC[C@H](NC(C)=O)C(=O)N[C@@H](CCC(N)=O)C(=O)N[C@@H]([C@@H](C)O)C(=O)N[C@@H](Cc3c[nH]c4ccccc34)C(=O)N[C@@H](CCC(N)=O)C(=O)N2)C(=O)N[C@@H](Cc2ccc3ccccc3c2)C(=O)N[C@@](C)(CCCCN)C(=O)N[C@@H](CCCCNC(C)=O)C(=O)N[C@@H](CC(N)=O)C(=O)NCC(N)=O)cc1`, the half-life at 20 µM in data set [5] was 3 to 6 h; in data set [6], below 1 h. Moreover, the half-inhibitory concentration (IC50) was below 10 nM on Interleukin-23 receptor [1], 10 to 25 nM in data set [2] and below 10 nM on Interleukin-23 receptor [4].

The values are drawn from ChEMBL document CHEMBL4417631, “Oral peptide inhibitors of interleukin-23 receptor and their use to treat inflammatory bowel diseases” (2017).
